Measurements published in ChEMBL document CHEMBL1201862, “PubChem BioAssay data set” (2004).
Active and inactive are the calls of the source.

Assays:
[1] = target: G-protein coupled receptor 55 (Homo sapiens, UniProt Q9Y2T6); assay: GPR55 antagonists blocking LPI-driven arrestin recruitment, primary screen, imaging, U2OS, beta-arrestin-GFP, LPI agonist (AID 2013); type: functional;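 note: antagonist potency measured as reduced agonist-driven arrestin aggregation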
CHO-K1 = assay: (§1) Counterscreen for antagonists of the orexin 1 receptor (OX1R; HCRTR1): Homogeneous time resolved fluorescence (HTRF)-based cell-based dose response assay to identify antagonists of the parental CHO-K1 cell line. [Related pubchem assays (depositor defined):AID434989, AID435008, AID463079, AID485270, AID492963, AID492964, AID492965, AID493232, AID504699, AID504701]; type: functional; details: Cricetulus griseus
[2] = THP-1 cell cytotoxicity, dose response, cytotoxicity control for non-replicating M. tuberculosis project (AID 489025); type: functional
[3] = HepG2 cell cytotoxicity, dose response, cytotoxicity control for non-replicating M. tuberculosis project (AID 489018); type: functional; details: Mycobacterium tuberculosis
[4] = as §1, with “Fluorescence-based” for “Homogeneous time resolved fluorescence (HTRF)-based”, “cell-based high throughput” for “cell-based”, “CHO” for “CHO-K1”; type: functional
[5] = target: T1, Orexin/Hypocretin receptor type 1 (Homo sapiens, UniProt O43613); assay: Homogeneous Time Resolved Fluorescence (HTRF)-based cell-based high throughput dose response assay for antagonists of the orexin 1 receptor (OX1R; HCRTR1). [Related pubchem assays (depositor defined):AID434989, AID435008, AID463079, AID485270, AID492963, AID492964, AID492965, AID493232, AID504717, AID504718]; type: functional
T1 sequence (O43613 whole entry): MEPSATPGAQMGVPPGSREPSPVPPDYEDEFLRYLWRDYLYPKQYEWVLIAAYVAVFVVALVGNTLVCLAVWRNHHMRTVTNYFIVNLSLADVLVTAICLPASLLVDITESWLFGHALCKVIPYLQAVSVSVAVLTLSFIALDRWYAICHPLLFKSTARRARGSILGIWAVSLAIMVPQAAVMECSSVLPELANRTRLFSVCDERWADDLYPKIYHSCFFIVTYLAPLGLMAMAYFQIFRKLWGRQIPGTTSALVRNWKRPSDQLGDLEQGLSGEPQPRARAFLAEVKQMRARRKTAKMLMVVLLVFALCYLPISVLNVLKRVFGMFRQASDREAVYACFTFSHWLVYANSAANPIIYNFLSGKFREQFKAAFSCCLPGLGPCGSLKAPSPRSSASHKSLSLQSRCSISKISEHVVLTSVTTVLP

[6] = target: T1, Orexin/Hypocretin receptor type 1; assay: Fluorescence-based cell-based high throughput dose response assay for antagonists of the orexin 1 receptor (OX1R; HCRTR1). [Related pubchem assays (depositor defined):AID434989, AID435008, AID463079, AID485270, AID492963, AID492964, AID492965, AID493232, AID504717, AID504718]; type: functional
cells = type: functional
[7] = target: T2, RNA-editing ligase 1, mitochondrial (Trypanosoma brucei brucei, UniProt P86926); assay: TbREL1 ligase inhibitors, dose response, biochemical, fluorescence, Trypanosoma brucei (AID 1117295); type: functional
T2 sequence (P86926 whole entry): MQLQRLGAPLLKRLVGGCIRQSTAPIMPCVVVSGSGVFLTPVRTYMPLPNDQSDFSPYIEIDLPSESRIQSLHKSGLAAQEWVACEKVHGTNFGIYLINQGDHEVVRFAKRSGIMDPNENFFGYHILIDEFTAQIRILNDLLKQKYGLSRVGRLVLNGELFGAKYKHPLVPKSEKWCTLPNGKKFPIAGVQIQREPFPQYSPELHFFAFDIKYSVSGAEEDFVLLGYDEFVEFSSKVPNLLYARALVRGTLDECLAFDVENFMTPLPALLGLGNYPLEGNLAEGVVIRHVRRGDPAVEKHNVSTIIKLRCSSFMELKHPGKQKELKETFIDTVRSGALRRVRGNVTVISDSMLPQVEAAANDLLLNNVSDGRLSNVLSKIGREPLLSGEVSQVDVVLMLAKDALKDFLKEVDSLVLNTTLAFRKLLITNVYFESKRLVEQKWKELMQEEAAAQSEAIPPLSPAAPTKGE

Exodeoxyribonuclease V = target: T3, Exodeoxyribonuclease V (Escherichia coli (strain K12), UniProt P04993+P07648+P08394); assay: E. coli RecBCD inhibitors, dose response, counter-screen for AddAB inhibitor project, absorbance, V66 E. coli, mutant T4 phage (AID 492957); type: functional, cell-based, Escherichia coli str. K-12 substr. MG1655
T3 sequence (P04993 whole entry): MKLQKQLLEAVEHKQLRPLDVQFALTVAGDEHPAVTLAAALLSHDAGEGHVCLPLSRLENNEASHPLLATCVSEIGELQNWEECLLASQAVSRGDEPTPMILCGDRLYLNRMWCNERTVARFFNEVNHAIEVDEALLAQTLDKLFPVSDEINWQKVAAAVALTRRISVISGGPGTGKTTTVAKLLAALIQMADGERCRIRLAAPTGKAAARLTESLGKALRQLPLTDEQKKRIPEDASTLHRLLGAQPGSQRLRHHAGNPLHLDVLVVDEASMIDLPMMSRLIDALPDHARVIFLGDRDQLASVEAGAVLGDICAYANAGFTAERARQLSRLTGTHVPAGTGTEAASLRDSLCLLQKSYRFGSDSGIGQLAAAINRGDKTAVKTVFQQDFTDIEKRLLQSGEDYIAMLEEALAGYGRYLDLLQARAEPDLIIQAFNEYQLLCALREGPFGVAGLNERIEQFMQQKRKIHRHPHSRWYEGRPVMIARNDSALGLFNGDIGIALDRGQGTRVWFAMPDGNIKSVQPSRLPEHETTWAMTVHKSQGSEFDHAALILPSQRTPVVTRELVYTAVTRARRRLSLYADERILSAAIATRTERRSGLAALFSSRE
T3 sequence (P07648 whole entry): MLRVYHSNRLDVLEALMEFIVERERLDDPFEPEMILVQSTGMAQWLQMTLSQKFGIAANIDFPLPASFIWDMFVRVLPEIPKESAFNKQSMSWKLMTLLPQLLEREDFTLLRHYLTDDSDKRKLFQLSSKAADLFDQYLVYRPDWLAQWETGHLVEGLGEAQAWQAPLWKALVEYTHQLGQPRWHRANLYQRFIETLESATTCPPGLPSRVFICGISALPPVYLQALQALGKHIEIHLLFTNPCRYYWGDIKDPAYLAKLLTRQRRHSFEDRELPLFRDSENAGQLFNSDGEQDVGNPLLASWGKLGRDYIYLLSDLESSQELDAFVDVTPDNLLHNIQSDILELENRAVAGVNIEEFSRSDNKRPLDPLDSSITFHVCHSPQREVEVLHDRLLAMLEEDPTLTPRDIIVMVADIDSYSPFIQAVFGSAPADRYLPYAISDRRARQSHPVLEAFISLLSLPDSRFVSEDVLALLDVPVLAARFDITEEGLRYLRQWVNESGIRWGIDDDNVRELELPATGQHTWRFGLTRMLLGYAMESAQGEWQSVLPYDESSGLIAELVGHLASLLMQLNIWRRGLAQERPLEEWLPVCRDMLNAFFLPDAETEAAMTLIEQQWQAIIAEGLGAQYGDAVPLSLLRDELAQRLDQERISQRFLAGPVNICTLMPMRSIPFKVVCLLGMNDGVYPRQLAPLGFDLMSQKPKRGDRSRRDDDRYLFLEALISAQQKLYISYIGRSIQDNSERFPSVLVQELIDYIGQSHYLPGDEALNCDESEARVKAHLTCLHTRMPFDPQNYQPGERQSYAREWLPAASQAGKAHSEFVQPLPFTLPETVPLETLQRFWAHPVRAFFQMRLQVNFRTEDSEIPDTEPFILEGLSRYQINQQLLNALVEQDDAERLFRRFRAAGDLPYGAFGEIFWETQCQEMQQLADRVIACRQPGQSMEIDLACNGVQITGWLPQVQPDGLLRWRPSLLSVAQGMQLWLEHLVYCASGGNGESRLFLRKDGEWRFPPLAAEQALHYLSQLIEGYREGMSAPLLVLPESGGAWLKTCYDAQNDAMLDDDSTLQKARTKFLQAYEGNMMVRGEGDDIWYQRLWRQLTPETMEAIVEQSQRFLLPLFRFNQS
T3 sequence (P08394 whole entry): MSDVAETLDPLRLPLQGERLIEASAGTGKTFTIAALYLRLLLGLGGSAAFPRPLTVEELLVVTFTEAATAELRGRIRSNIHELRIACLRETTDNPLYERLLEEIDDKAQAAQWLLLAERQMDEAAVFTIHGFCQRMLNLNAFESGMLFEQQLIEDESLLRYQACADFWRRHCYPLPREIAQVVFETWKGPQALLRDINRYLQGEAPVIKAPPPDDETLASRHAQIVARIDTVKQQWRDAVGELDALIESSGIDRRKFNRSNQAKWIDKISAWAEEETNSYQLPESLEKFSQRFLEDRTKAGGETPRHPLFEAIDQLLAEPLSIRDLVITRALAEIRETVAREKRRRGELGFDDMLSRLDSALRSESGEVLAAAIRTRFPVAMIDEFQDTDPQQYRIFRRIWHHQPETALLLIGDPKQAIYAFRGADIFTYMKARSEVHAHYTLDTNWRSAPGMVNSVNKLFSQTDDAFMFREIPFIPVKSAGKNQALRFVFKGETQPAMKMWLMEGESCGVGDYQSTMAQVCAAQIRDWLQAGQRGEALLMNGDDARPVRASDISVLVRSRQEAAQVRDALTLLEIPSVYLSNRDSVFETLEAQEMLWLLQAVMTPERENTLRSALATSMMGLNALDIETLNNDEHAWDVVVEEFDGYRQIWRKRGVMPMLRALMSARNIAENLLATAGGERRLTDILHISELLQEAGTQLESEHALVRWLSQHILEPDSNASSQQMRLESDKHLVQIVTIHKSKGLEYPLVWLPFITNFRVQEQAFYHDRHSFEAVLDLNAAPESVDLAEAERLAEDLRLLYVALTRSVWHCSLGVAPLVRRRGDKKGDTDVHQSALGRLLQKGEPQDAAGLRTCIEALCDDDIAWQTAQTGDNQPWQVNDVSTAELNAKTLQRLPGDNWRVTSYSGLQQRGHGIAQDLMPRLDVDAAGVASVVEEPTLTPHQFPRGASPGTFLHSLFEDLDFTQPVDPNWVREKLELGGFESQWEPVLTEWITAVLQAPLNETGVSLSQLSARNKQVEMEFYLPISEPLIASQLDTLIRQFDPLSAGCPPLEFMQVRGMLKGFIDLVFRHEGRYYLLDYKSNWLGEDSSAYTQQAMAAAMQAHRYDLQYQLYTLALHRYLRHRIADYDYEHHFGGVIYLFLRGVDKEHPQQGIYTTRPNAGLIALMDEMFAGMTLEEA

[8] = Counterscreen for AddAB inhibitors: absorbance-based bacterial cell-based high throughput dose response assay for inhibitors of bacterial viability. [Related pubchem assays (depositor defined):AID435030, AID449728, AID449731, AID488942, AID488955, AID488956]; type: functional
SUMO E1/E2 = SUMO E1/E2 (Homo sapiens, UniProt P63279+Q9UBE0+Q9UBT2); assay: SAR analysis of SUMOylation using HTRF in an in-Vitro dose response assay. [Related pubchem assays (depositor defined):AID2006, AID2011, AID2018, AID2069, AID2658]; type: functional
SUMO-activating enzyme = SUMO-activating enzyme (Homo sapiens, UniProt Q9UBT2); assay: SUMOylation inhibitor hit validation, confirmation, SUMOylation inhibitor project, biochemical, AlphaScreen (AID 2018); type: functional
[9] = inhibitors of firefly luciferase expression or activity, dose response, H4 neuroglioma cells, luminescence (AID 1990); type: functional, cell-based
[10] = Luminescence Cell-Based Dose Response HTS to Identify Inhibitors of 5'UTR Stem-Loop Driven Prion Protein mRNA Translation in H4 Neuroglioblastoma Cells. [Related pubchem assays: 1827 (Project Summary), 1813 (Primary HTS)]; type: functional
[11] = inhibitors of SNCA 5'UTR-driven reporter translation, confirmation, H4 neuroglioma cells, luminescence (AID 1988); type: functional, cell-based

Sequence of SUMO-activating enzyme (Q9UBE0 whole entry): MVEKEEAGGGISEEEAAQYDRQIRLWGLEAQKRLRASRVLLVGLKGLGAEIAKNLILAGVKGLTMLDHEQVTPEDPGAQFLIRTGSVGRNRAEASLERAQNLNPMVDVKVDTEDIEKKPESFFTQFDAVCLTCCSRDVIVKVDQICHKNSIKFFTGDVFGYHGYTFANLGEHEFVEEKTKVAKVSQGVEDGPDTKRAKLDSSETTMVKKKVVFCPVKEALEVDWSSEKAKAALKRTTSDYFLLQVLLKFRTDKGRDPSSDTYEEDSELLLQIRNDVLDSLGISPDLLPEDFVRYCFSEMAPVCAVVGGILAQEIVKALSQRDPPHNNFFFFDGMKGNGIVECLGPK
Sequence of SUMO-activating enzyme (Q9UBT2 whole entry): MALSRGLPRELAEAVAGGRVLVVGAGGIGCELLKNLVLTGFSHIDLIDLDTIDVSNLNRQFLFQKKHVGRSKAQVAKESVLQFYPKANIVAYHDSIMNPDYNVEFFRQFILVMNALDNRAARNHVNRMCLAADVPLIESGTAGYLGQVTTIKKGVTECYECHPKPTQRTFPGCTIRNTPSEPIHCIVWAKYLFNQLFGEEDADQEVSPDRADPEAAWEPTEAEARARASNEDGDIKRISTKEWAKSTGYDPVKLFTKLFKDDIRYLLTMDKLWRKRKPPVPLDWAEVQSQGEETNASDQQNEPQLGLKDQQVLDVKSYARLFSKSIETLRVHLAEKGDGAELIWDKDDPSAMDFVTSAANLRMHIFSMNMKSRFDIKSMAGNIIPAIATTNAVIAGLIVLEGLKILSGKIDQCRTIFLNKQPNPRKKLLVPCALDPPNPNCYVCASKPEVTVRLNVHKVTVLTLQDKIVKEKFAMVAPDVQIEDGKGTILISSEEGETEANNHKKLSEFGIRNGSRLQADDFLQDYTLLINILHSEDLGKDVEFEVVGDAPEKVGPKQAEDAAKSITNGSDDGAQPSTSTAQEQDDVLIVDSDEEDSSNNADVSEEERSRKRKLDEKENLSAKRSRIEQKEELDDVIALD
Sequence of SUMO E1/E2 (Q9UBE0 whole entry): as the sequence (Q9UBE0 whole entry) above
Sequence of SUMO E1/E2 (Q9UBT2 whole entry): as the sequence (Q9UBT2 whole entry) above
Sequence of SUMO E1/E2 (P63279 whole entry): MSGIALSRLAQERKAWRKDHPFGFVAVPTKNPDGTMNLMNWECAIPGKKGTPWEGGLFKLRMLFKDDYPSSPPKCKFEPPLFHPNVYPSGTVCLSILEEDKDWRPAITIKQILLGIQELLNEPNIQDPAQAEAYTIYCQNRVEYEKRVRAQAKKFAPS
Sequence of G-protein coupled receptor 55 (Q9Y2T6 whole entry): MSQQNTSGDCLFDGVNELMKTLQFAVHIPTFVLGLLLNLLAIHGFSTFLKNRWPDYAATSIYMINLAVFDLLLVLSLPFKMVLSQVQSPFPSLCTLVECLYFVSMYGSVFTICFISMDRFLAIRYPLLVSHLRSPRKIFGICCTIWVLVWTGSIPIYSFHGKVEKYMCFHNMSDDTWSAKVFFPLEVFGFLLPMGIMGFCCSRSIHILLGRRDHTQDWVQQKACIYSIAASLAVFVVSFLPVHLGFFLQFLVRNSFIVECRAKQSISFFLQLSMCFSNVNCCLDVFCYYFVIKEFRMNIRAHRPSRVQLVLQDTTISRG

COC(=O)C1=C(C)N(Cc2ccccc2)C(NCc2ccccc2)=N[C@H]1c1cccc(F)c1
IC50 [1]: 1.25 µM (active)
IC50 (CHO-K1): > 66.2 µM (inactive)
CC50 [2]: 15 µM (active)
CC50 [3]: 14.9 µM (active)
IC50 [4]: 23.8 µM (inactive)
IC50 [5]: > 66.2 µM (inactive)
IC50 [6]: 17.9 µM (inactive)
IC50 (cells): 19.8 µM (active)
IC50 [7]: > 96.6 µM (inactive)

CC(=O)N(O)CCCCCNC(=O)CCC(=O)N(O)CCCCCNC(=O)CCC(=O)N(O)CCCCCNC(=O)CCC(=O)O
IC50 (Exodeoxyribonuclease V): > 118 µM (inactive)
IC50 [8]: > 118 µM (inactive)

Cc1ccc(Nc2cc3ccccc3c(=O)[nH]2)cc1
IC50 (SUMO E1/E2): 19.8 µM (active)

Cc1ccc(-c2nc3ccccc3o2)cc1NC(=O)c1ccc2c(c1)OCO2
IC50 (SUMO-activating enzyme): 34.1 µM (active)

Nc1c2cnnc-2nc(SCC(=O)c2ccc(Br)cc2)n1-c1ccc(Br)cc1
EC50 [9]: > 120 µM (not active)
EC50 [10]: > 120 µM (not active)
IC50 (SUMO-activating enzyme): 59.1 µM (active)
EC50 [11]: > 120 µM (not active)

Cc1ccc(C2Nc3ccc(C(=O)O)cc3C3C=CCC32)cc1 (stereo not drawn)
IC50 (SUMO E1/E2): > 100 µM (inactive)
